Laboratory results: ChEMBL document CHEMBL4346666, “Synthesis, mitochondrial localization of fluorescent derivatives of cinnamamide as anticancer agents” (Eur J Med Chem, 2019)
pIC50: −log10 of the molar value. Active and inactive are the calls of the source. The calls are words filed in the database; no cut-off is given here.

What was measured:
HL-60 [1] = test: Induction of cell cycle arrest in human HL60 cells assessed as accumulation at G0/G1 phase at 15 uM after 48 hrs by propidium iodide staining based flow cytometry (reference value: 83.52%); assay type: functional
HeLa = test: Cytotoxicity against human HeLa cells assessed as cell viability at 20 uM measured after 48 hrs by MTT assay relative to control; assay type: functional; settings: read-out: Activity
HepG2 = test: Cytotoxicity against human HepG2 cells assessed as cell viability at 20 uM measured after 48 hrs by MTT assay relative to control; assay type: functional; settings: HepG2, 48 h, read-out: Activity
HL-60 [2] = test: Induction of mitochondrial dysfunction in human HL60 cells assessed as decrease in mitochondrial membrane potential at 15 uM measured after 48 hrs by TMRE probe-based flow cytometry relative to control; assay type: functional
HL-60 [3] = test: Induction of cell cycle arrest in human HL60 cells assessed as accumulation at G2/M phase at 15 uM after 48 hrs by propidium iodide staining based flow cytometry (reference value: 1.60%); assay type: functional
[4] = Drug localization in mitochondria of human HepG2 cells at 1 uM measured after 30 mins by […] dye-based confocal microscopy; assay type: ADME; settings: hepg2, 0.5 h
HL-60 [5] = test: Induction of mitochondrial dysfunction in human HL60 cells assessed as decrease in mitochondrial membrane potential at 10 uM measured after 48 hrs by TMRE probe-based flow cytometry relative to control; assay type: functional
HL-60 [6] = test: Cell cycle arrest in human HL60 cells assessed as decrease in accumulation at S phase after 48 hrs by propidium iodide staining based flow cytometry; assay type: functional
HL-60 [7] = test: Induction of cell cycle arrest in human HL60 cells assessed as accumulation at sub G0/G1 phase at 10 uM after 48 hrs by propidium iodide staining based flow cytometry (reference value: 0%); assay type: functional
MCF7 = test: Cytotoxicity against human MCF7 cells assessed as cell viability at 20 uM measured after 48 hrs by MTT assay relative to control; assay type: functional; settings: MCF7, 48 h, read-out: Activity
HL-60 [8] = test: Cytotoxicity against human HL60 cells assessed as reduction in cell viability measured after 48 hrs by MTT assay; assay type: functional, cell-based; settings: HL-60, 48 h
HL-60 [9] = test: Induction of cell cycle arrest in human HL60 cells assessed as accumulation at sub G0/G1 phase at 15 uM after 48 hrs by propidium iodide staining based flow cytometry (reference value: 0%)l; assay type: functional
HL-60 [10] = test: Induction of apoptosis in human HL60 cells assessed as early apoptotic cells at 15 uM after 48 hrs by Annexin-V-FITC/propidium iodide staining based flow cytometry (reference value: 0.71%); assay type: functional
[11] = Drug localization in mitochondria of human HL60 cells at 1 uM measured after 30 mins by […] dye-based confocal microscopy; assay type: ADME; settings: hl-60, 0.5 h
[12] = Binding affinity to cysteamine residue by ESI-MS analysis
HL-60 [13] = test: Induction of apoptosis in human HL60 cells assessed as late apoptotic cells or necrotic cells at 15 uM after 48 hrs by Annexin-V-FITC/propidium iodide staining based flow cytometry (reference value: 0.39%); assay type: functional
[14] = Drug uptake in human HL60 cells at 20 uM measured after 0.5 hrs by spectrofluorimetric analysis relative to PBMC cells; assay type: ADME, cell-based; settings: hl-60, 0.5 h
HL-60 [15] = test: Cell cycle arrest in human HL60 cells assessed as decrease in accumulation at G2/M phase after 48 hrs by propidium iodide staining based flow cytometry; assay type: functional
HL-60 [16] = test: Induction of cell cycle arrest in human HL60 cells assessed as accumulation at S-phase at 20 uM after 48 hrs by propidium iodide staining-based flow cytometry (reference value: 14.88%); assay type: functional
HL-60 [17] = test: Induction of cell cycle arrest in human HL60 cells assessed as accumulation at G0/G1 phase at 20 uM after 48 hrs by propidium iodide staining based flow cytometry (reference value: 83.52%); assay type: functional
HL-60 [18] = test: Cytotoxicity against human HL60 cells assessed as cell viability at 20 uM measured after 48 hrs by MTT assay relative to control; assay type: functional; settings: HL-60, 48 h, read-out: Activity
HL-60 [19] = test: Induction of apoptosis in human HL60 cells assessed as late apoptotic cells or necrotic cells at 10 uM after 48 hrs by Annexin-V-FITC/propidium iodide staining based flow cytometry (reference value: 0.39%); assay type: functional
HL-60 [20] = test: Induction of apoptosis in human HL60 cells assessed as increase in late apoptotic or necrotic cells after 48 hrs by Annexin-V-FITC/propidium iodide staining based flow cytometry relative to control; assay type: functional, cell-based
HL-60 [21] = test: Induction of cell cycle arrest in human HL60 cells assessed as accumulation at G2/M phase at 10 uM after 48 hrs by propidium iodide staining based flow cytometry (reference value: 1.60%); assay type: functional
HL-60 [22] = test: Induction of apoptosis in human HL60 cells assessed as early apoptotic cells at 10 uM after 48 hrs by Annexin-V-FITC/propidium iodide staining based flow cytometry (reference value: 0.71%); assay type: functional
[23] = Binding affinity to cysteamine residue assessed as hypochromic effect at 20 uM incubated for up to 1 hr by UV-Vis absorption spectrophotometric method
HL-60 [24] = test: Induction of cell cycle arrest in human HL60 cells assessed as accumulation at S-phase at 10 uM after 48 hrs by propidium iodide staining based flow cytometry (reference value: 14.88%); assay type: functional
HL-60 [25] = test: Induction of apoptosis in human HL60 cells assessed as early apoptotic cells at 20 uM after 48 hrs by Annexin-V-FITC/propidium iodide staining based flow cytometry (reference value: 0.71%); assay type: functional
HL-60 [26] = test: Induction of cell cycle arrest in human HL60 cells assessed as accumulation at sub G0/G1 phase at 20 uM after 48 hrs by propidium iodide staining based flow cytometry (reference value: 0%); assay type: functional
[27] = Drug uptake in human HL60 cells at 20 uM measured after 3 hrs by spectrofluorimetric analysis relative to PBMC cells; assay type: ADME, cell-based; settings: hl-60, 3 h
[28] = Drug uptake in human HL60 cells by flow cytometry; assay type: ADME, cell-based; settings: hl-60
HL-60 [29] = test: Induction of mitochondrial dysfunction in human HL60 cells assessed as decrease in mitochondrial membrane potential at 20 uM measured after 48 hrs by TMRE probe-based flow cytometry relative to control; assay type: functional
[30] = Drug uptake in human HL60 cells at 20 uM measured after 1.5 hrs by spectrofluorimetric analysis relative to PBMC cells; assay type: ADME, cell-based; settings: hl-60, 1.5 h
HL-60 [31] = test: Induction of cell cycle arrest in human HL60 cells assessed as accumulation at G2/M phase at 20 uM after 48 hrs by propidium iodide staining based flow cytometry (reference value: 1.60%); assay type: functional
HL-60 [32] = test: Cytotoxicity against human HL60 cells assessed as reduction in cell viability measured after 48 hrs in presence of ROS scavenger N-acetyl-L-cysteine and VE by MTT assay; assay type: functional, cell-based
[33] = Binding affinity to cysteamine residue at 1:1 to 5:1 stoichiometric ratio of cysteamine to compound incubated for up to 1 hr by UV-Vis absorption spectrophotometric method
HL-60 [34] = test: Induction of cell cycle arrest in human HL60 cells assessed as accumulation at G0/G1 phase at 10 uM after 48 hrs by propidium iodide staining based flow cytometry (reference value: 83.52%); assay type: functional
PBMC = test: Cytotoxicity against human PBMC assessed as reduction in cell viability measured after 48 hrs by MTT assay; assay type: cell-based
HL-60 [35] = test: Induction of apoptosis in human HL60 cells assessed as late apoptotic cells or necrotic cells at 20 uM after 48 hrs by Annexin-V-FITC/propidium iodide staining based flow cytometry (reference value: 0.39%); assay type: functional
HL-60 [36] = test: Induction of cell cycle arrest in human HL60 cells assessed as accumulation at S phase at 15 uM after 48 hrs by propidium iodide staining based flow cytometry (reference value: 14.88%); assay type: functional
HL-60 [37] = test: Induction of ROS generation in human HL60 cells after 6 hrs by DCFH-DA probe based flow cytometry analysis; assay type: functional, cell-based

`CCN(CC)c1ccc2cc(C(=O)NCCNC(=O)/C(=C/c3cc(OC)c(OC)c(OC)c3)c3ccc(OC)c(OC)c3)c(=O)oc2c1` showed an Activity (HL-60 [1]) of 24.15%, a viability at 20 µM (HeLa) of 53.8% and a viability at 20 µM (HepG2) of 56.4%. For the same compound, the “fold change (FC)” value (HL-60 [2]) was 0.46, the Activity (HL-60 [3]) was 40.42% and the Drug uptake [4] was “Active”. The “fold change (FC)” value (HL-60 [5]) was 0.76, the Activity (HL-60 [6]) was “Dose-dependent effect” and the Activity (HL-60 [7]) was 12.84%. For the same compound, the viability at 20 µM (MCF7) was 66.5%, the pIC50 (HL-60 [8]) was 5.04 and the Activity (HL-60 [9]) was 24.1%. The Activity (HL-60 [10]) was 6.06%, the Drug uptake [11] was “Active” and the Activity [12] was “Active”. The Activity (HL-60 [13]) was 38%, the “fold change (FC)” value [14] was 4.2 and the Activity (HL-60 [15]) was “Dose-dependent effect”. It also gave an Activity (HL-60 [16]) of 55.59%, an Activity (HL-60 [17]) of 2.69% and a viability at 20 µM (HL-60 [18]) of 25.8%. The Activity (HL-60 [19]) was 16.3%, the Activity (HL-60 [20]) was “Dose-dependent effect” and the Activity (HL-60 [21]) was 14.35%. For the same compound, the Activity (HL-60 [22]) was 2.15%, the Activity [23] was “Active” and the Activity (HL-60 [24]) was 19.94%. For the same compound, the Activity (HL-60 [25]) was 3.75%, the Activity (HL-60 [26]) was 21.44% and the “fold change (FC)” value [27] was 8.9. The Drug uptake [28] was “Tde and Dose-dependent effect”, the “fold change (FC)” value (HL-60 [29]) was 0.29 and the “fold change (FC)” value [30] was 4.5. The Activity (HL-60 [31]) was 41.72%, the Activity (HL-60 [32]) was “inactive” and the Activity [33] was “Active”. For the same compound, the Activity (HL-60 [34]) was 65.71%, the pIC50 (PBMC) was < 4.30 and the Activity (HL-60 [35]) was 70.2%. The Activity (HL-60 [36]) was 35.43% and the Activity (HL-60 [37]) was “Dose-dependent effect”.
